Values quoted from earlier work as cited in publication PMC5224880, “Discovery and Molecular Basis of a Diverse Set of Polycomb Repressive Complex 2 Inhibitors Recognition by EED” (PLoS ONE, 2017).
Entries after “also recorded” stand apart in the source; their conditions may differ.

Legend:
[1] = system: tumor growth in the xenograft mouse model; parameters: method as in PMID 28135235; conditions: cited from earlier work
[2] = system: PRC2; parameters: method as in PMID 28135235; conditions: recombinant NCP as substrate; read-out: half-maximum stimulation (Kact) of PRC2 activity; cited from earlier work

Row | Molecule | antitumor activity [1] | EC50 [2] [µM]
1 | CS(=O)(=O)c1ccc(-c2cnc(NCc3ccco3)n3cnnc23)cc1 [EED226] | strong antitumor activity; also recorded: completely regressed tumor growth | –
2 | H3K27me3 stimulatory peptide: activation peptide H3K27me3 (21–44) used to stimulate PRC2 activity for the nucleosome substrate | – | 1
